Reference: patent US20250109127A1, “METHODS OF USE OF PHENOXYPROPYLAMINE COMPOUNDS TO TREAT DEPRESSION” (Minerva Neurosciences, Inc., priority 2013, published 2025)
Several values for one entry are separate records, joined by “and”; a condition that tells them apart may be missing. Equal values may be shown once. Where a name gives a salt, the structure may show the parent alone.

Tested on: dopamine release in the rat prefrontal cortex
Assay: Microdialysis: dopamine release in prefrontal cortex after I.P. administration
Type: in vivo
Conditions: for Dopamine release, individual animals / Dopamine release, MEAN: 0.3 mg/kg I.P.; for Dopamine release, individual animals: one column per animal R#11,12,18,23,29,30,17,24, hydrochloride; for Dopamine release, MEAN / DOPAMINE (% of respective basal) MEAN: n = 8; for DOPAMINE (% of respective basal) MEAN: SON-117 group 0.1 mg/kg I.P.
Method: The aim of the study was to evaluate, using microdialysis, the effects of an intraperitoneal (I.P.) administration in rats of three different doses of SON-117 on dopamine and its metabolites, serotonin and its metabolite (5-HIAA), and norepinephrine levels in prefrontal cortex.
Thirty-two adult male Wistar rats were used for the whole study (4 groups of eight animals planned for the study, Table 1).
Surgery was performed on rats weighing about 300 g at the beginning of the experiments. Rats were anaesthetized with Ketamine (50 mg/kg) & Xylazine (15 mg/kg) by intramuscular administration. The animals were placed in a stereotaxic apparatus in the flat-skull position at a constant setting of −3.3 mm between ear bars and the incisor bar. The animals were treated with a local anesthesic (xylocaine 1%, Astra Zeneca) and an analgesic (Temgesic, from Schering Plough, 0.05 mg/kg, s.c.). A rostrocaudal midline incision was made with a lancet to expose the dorsal skull surface. The “stereotaxic zero” was defined by the Bregma in accordance with Paxinos and Watson's atlas (1986). A hole was drilled in the skull with a drill and the meninges were pierced with a sterile needle to implant a CMA12 guide cannula which later received the dialysis probe.
Coordinates used for implanting guide cannula in prefrontal cortex from Bregma were anteroposterior 3.7 mm, mediolateral 0.8 mm, and dorsoventral −2 mm (top of the probe was at −5 mm). The guide cannula was fixed to the skull with two stainless steel screws (1.88 mm outside diameter) anchored. An application of dental cement was added. A plastic collar allowed each animal to be tethered to a Swivel assembly of the CMA 120 awake animal system. Following surgery, rats were kept in individual cages and allowed to recover for a minimum of 3-5 days before the experimentation. The rats were handled and put in plastic bowl for 10 min at least every day to habituate the animals to their new environment for the dialysis. An I.P. administration with saline was also performed every day.
Dialysis probes (CMA12/3 mm, membrane, 20 kD cut-off, Carnegie Medicine, Stockholm, Sweden), were carefully washed before inserting into the guide cannula. The wash was performed with the artificial cerebrospinal fluid (aCSF) medium (NaCl 147 mM, KCl 2.7 mM, CaCl2 1.2 mM, MgCl2 0.85 mM) at room temperature. The dialysis system was then equilibrated at 20° C. at a perfusion rate of 1 μl/min with a Carnegie pump (CMA100). All catheters (FEP tubing, internal volume of 1.2 μl/10 cm, and tubing adaptors) used for microdialysis were treated in the same conditions.
The probes duly prepared were inserted into the guide cannula and the CMA120 Swivel assembly secured to the animal using a plastic collar. Flow through the dialysis probe with aCSF was maintained at a rate of 1 μl/min during the whole experimentation. The first four fractions (corresponding to 2 hours) were discarded to avoid the effects of parenchymal disturbance and to ensure that an approximate steady-state level was reached. Fractions were then collected over a period of 8.5 h during which time the animals remained quiet. The dialysates were automatically collected with an autosampler (microfraction collector CMA 140, Carnegie Medicin) and stored at −80° C. until analysis. […] Perfusion was then maintained for 7 hours with aCSF. The dialysates (30 μl) were collected into 300 μl vials, transferred into dry ice and then kept frozen (−80° C.) until analysis. Frozen samples were shipped to a partner for analysis. At the end of the microdialysis study, a PBS with colored ink was perfused through the probe in order to visualize the dialyzed area.
Catecholamine assay: Concentrations of dopamine, DOPAC, HVA, 5-HIAA, 5-HT, and norepinephrin were determined for each sample by HPLC coupled with electrochemical detection.

[1] = T-30 min-T0 (before administration)
[2] = T-1 h 30-T-1 h (before administration)
[3] = T-1 h-T-30 min (before administration)

Structure (SMILES): Cc1nnc(-c2cc3c(OC[C@@H](O)CN4CCC(c5ccc(Cl)c(Cl)c5)CC4)cccc3o2)o1 [SON-117, (S)-1-(4-(3,4-dichlorophenyl)piperidino)-3-(2-(5-methyl-1,3,4-oxadiazol-2-yl)benzo(b)furan-4-yloxy)-2-propanol hydrochloride]
- Dopamine release, individual animals (T5 h 30-T6 h): 1190.31 % of respective basal and 66.72 % of respective basal and 285.31 % of respective basal and 29.48 % of respective basal and 247.57 % of respective basal and 111.91 % of respective basal and 52.03 % of respective basal and 128.48 % of respective basal
- Dopamine release, MEAN (T5 h-T5 h 30): 263.19 % of respective basal
- Dopamine release, individual animals (T5 h-T5 h 30): 611.23 % of respective basal and 37.39 % of respective basal and 1036.44 % of respective basal and 30.12 % of respective basal and 108.05 % of respective basal and 81.56 % of respective basal and 80.36 % of respective basal and 120.37 % of respective basal
- Dopamine release, MEAN (T6 h 30-T7 h): 297.55 % of respective basal
- Dopamine release, individual animals (T6 h 30-T7 h): 331.87 % of respective basal and 230.42 % of respective basal and 224.57 % of respective basal and 11.34 % of respective basal and 202.06 % of respective basal and 117.28 % of respective basal
- Dopamine release, MEAN (T6 h-T6 h 30): 267.65 % of respective basal
- Dopamine release, individual animals (T6 h-T6 h 30): 879.91 % of respective basal and 122.45 % of respective basal and 101.84 % of respective basal and 10.68 % of respective basal and 188.10 % of respective basal and 103.08 % of respective basal and 135.89 % of respective basal and 599.24 % of respective basal
- Dopamine release, MEAN [1]: 100.22 % of respective basal
- Dopamine release, MEAN [2]: 104.26 % of respective basal
- Dopamine release, MEAN [3]: 98.66 % of respective basal
- dopamine levels, increase (not statistically significant) (SON-117 0.1 mg/kg I.P., from 4.5 h to 7 h): 353%
- dopamine levels, increase (not statistically significant) (SON-117 0.1 mg/kg I.P., from T1.5 h and 2.5 h): 287%
- dopamine levels, increase (not statistically significant) (SON-117 0.3 mg/kg I.P., from 5.5 h to 7 h): 298%
- dopamine levels, slight increase (not statistically significant) (SON-117 3 mg/kg IP, at 1.5 h): 169%
- dopamine levels, slight increase, max. (not statistically significant) (SON-117 3 mg/kg IP, from 6 h to 7 h): 167%
- release of dopamine, trend (SON-117 0.1 and 0.3 mg/kg, from 5.5 h): trend for an increased release
- dopamine, difference to the citalopram group (two-way ANOVA) (SON-117 at the three doses tested, in function of time): no significant differences
- DOPAMINE (% of respective basal) MEAN (T0-T30 min): 133.37 % of respective basal
- DOPAMINE (% of respective basal) MEAN (T30-T1 h): 103.29 % of respective basal
- DOPAMINE (% of respective basal) MEAN (T1 h 30-T2 h): 151.81 % of respective basal
- DOPAMINE (% of respective basal) MEAN (T1 h-T1 h 30): 123.06 % of respective basal
- DOPAMINE (% of respective basal) MEAN (T2 h 30-T3 h): 138.45 % of respective basal
- DOPAMINE (% of respective basal) MEAN (T2 h-T2 h 30): 286.96 % of respective basal
- DOPAMINE (% of respective basal) MEAN (T3 h 30-T4 h): 155.83 % of respective basal
- DOPAMINE (% of respective basal) MEAN (T3 h-T3 h 30): 150.01 % of respective basal
- DOPAMINE (% of respective basal) MEAN (T4 h 30-T5 h): 240.84 % of respective basal
- DOPAMINE (% of respective basal) MEAN (T4 h-T4 h 30): 215.81 % of respective basal
- DOPAMINE (% of respective basal) MEAN (T5 h 30-T6 h): 188.21 % of respective basal
- DOPAMINE (% of respective basal) MEAN (T5 h-T5 h 30): 183.94 % of respective basal
- DOPAMINE (% of respective basal) MEAN (T6 h 30-T7 h): 353.25 % of respective basal
- DOPAMINE (% of respective basal) MEAN (T6 h-T6 h 30): 226.43 % of respective basal
- DOPAMINE (% of respective basal) MEAN [1]: 105.18 % of respective basal
- DOPAMINE (% of respective basal) MEAN [2]: 100.9 % of respective basal
- DOPAMINE (% of respective basal) MEAN [3]: 91.46 % of respective basal
